Our source for the IC50 values is patent US7022718B2, “Pyridine and pyrimidine derivatives” (Hoffmann-La Roche Inc., priority 2002, dated 2006).

Where two headings read alike, the source gives them in different places.

In this assay the target is human DPP-IV (Homo sapiens, UniProt P27487). The assay is described as follows: DPP-IV activity assay (fluorometric / colorimetric), IC50 determination.
Chain of human DPP-IV (P27487 31-766): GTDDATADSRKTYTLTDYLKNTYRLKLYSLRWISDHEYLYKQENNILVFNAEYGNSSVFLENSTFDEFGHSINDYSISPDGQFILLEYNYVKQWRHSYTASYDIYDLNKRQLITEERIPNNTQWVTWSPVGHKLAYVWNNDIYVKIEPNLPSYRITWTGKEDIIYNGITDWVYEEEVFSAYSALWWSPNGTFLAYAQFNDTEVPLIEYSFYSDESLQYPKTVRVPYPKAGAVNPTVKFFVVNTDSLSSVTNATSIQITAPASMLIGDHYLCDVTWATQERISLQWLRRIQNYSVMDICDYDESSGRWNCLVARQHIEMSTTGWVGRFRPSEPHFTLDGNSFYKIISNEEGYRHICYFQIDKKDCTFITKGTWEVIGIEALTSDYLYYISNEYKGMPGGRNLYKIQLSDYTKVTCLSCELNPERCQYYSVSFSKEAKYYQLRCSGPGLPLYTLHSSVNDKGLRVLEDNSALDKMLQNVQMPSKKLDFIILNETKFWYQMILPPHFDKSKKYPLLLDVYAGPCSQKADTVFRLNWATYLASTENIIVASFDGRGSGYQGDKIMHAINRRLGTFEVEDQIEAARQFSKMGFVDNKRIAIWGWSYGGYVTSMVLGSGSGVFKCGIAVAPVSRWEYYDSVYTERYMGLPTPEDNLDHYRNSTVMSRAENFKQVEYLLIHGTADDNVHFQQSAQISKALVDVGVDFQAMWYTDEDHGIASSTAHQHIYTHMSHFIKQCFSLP

Protocol: Activity of DPP-IV inhibitors are tested with natural human DPP-IV derived from a human plasma pool or with recombinant human DPP-IV. Human citrate plasma from different donors is pooled, filtered through a 0.2 micron membrane under sterile conditions, and aliquots of 1 ml are shock frozen and stored at −120° C. until used. In the calorimetric DPP-IV assay 5 to 10 μl human plasma, and in the fluorometric assay 1.0 μl of human plasma in a total assay volume of 100 μl is used as an enzyme source. […] Human DPP-IV is expressed and purified from the culture medium using conventional column chromatography including size exclusion and anion and cation chromatography. […] In the calorimetric DPP-IV assay 20 ng rec.-h DPP-IV and in the fluorometric assay 2 ng rec-h DPP-IV in a total assay volume of 100 μl is used as an enzyme source.
Initial rate constants are calculated by best fit linear regression.
DPP-IV activity assays are performed in 96 well plates at 37° C. in a total assay volume of 100 μl. The assay buffer consists of 50 mM Tris/HCl pH 7.8 containing 0.1 mg/ml BSA and 100 mM NaCl. Test compounds are solved in 100% DMSO, diluted to the desired concentration in 10% DMSO/H2O. The final DMSO concentration in the assay is 1% (v/v). At this concentration enzyme inactivation by DMSO is <5%. Compounds are with (10 minutes at 37° C.) and without preincubation with the enzyme. Enzyme reactions are started with substrate application followed by immediate mixing.
Kinetic parameters of the enzyme reaction are calculated at least 5 different substrate concentrations and at least 5 different test compound concentrations.

`CNCc1c(N)nc(-c2ccccc2)nc1-c1ccc(Cl)cc1Cl` [Example 76, 6-(2,4-Dichloro-phenyl)-5-methylaminomethyl-2-phenyl-pyrimidin-4-ylamine]: the IC50 – broadly, the concentration at which inhibition is half-maximal – was 391 nM.
Consider `NCc1c(N)nc(-c2cccc(F)c2)nc1-c1ccc(Cl)cc1Cl` [Example 13, 5-Aminomethyl-6-(2,4-dichloro-phenyl)-2-(3-fluoro-phenyl)-pyrimidin-4-ylamine], for which the IC50 (natural human DPP-IV from human plasma pool or recombinant human DPP-IV, 37° C., pH 7.8) is 0.2 nM.
`CSc1nc(N)c(CN)c(-c2ccc(Cl)cc2Cl)n1` [Example 23, 5-Aminomethyl-6-(2,4-dichloro-phenyl)-2-methylsulfanyl-pyrimidin-4-ylamine]: the IC50 turned out to be 13 nM.
`NCc1c(N)nc(N2CCCCCC2)nc1-c1ccc(Cl)cc1Cl` [Example 20, 5-Aminomethyl-2-azepan-1-yl-6-(2,4-dichloro-phenyl)-pyrimidin-4-ylamine] yielded an IC50 of 3 nM.
Same read-out and setting: the figure for `Cc1ccc(-c2nc(-c3ccccc3)nc(N)c2CN)c(C)c1` [Example 11, 5-Aminomethyl-6-(2,4-dimethyl-phenyl)-2-phenyl-pyrimidin-4-ylamine] is 172 nM; for `NCc1c(N)nc(-c2cc3ccccc3o2)nc1-c1ccc(Cl)cc1Cl` [Example 16, 5-Aminomethyl-2-benzofuran-2-yl-6-(2,4-dichloro-phenyl)-pyrimidin-4-ylamine] it is 0.7 nM.
On the same count and under the same terms, the figure for `CCc1ccc(-c2nc(-c3ccccc3)nc(N)c2CN)cc1` [Example 43, 5-Aminomethyl-6-(4-ethyl-phenyl)-2-phenyl-pyrimidin-4-ylamine] is 389 nM; for `Cc1c(-c2ccccc2)nc(N)c(CN)c1-c1ccc(Cl)cc1Cl` [Example 79, 3-Aminomethyl-4-(2,4-dichloro-phenyl)-5-methyl-6-phenyl-pyridin-2-ylamine] it is 873 nM.
